Results published in US20030143165A1, “NSAID-containing topical formulations that demonstrate chemopreventive activity” (priority 2002, published 2003).

How the values were obtained:
[1] = tested on: SKH-1 mice (hairless mice); test: UV light-induced skin carcinogenesis (papillomas/tumours) in hairless mice, topical treatment for 28 weeks; assay type: in vivo; details: for animals that had developed at least one tumour at the end of the study: week 28
Method: In a first laboratory experiment performed, female SKH-1 mice (hairless mice) were purchased from the Animal Resource Service of Murdoch University, Western Australia, at approximately 3-4 weeks of age. Upon arrival at the Applicants' laboratory, the mice were housed in climate-controlled quarters (22±1° C. at 50% humidity) with a 12-hour light/dark cycle in yellow fluorescent lighting. All animals were allowed free access to rodent diet and water. The experimental protocol and all procedures were approved by CSIRO Health Sciences and Nutrition Animal Experimental Ethics Committee and followed the Australian Code of Practice for the care and use of animals for scientific purposes. The animals were observed daily during the period of UV light exposure. Individual body weights were determined twice weekly throughout the whole study period of 28 weeks.
Racemic flurbiprofen (“RS-FB”), used as the chemopreventive NSAID in this experiment, was purchased from Sigma Chemical Company (Sydney, Australia). Several topical formulation solutions were prepared by dissolving RS-FB in 70% ethanol (in water) as the carrier medium to achieve final RS-FB concentrations of 0.5, 1.0, 2.0 and 3.0% w/v. The drug solutions were prepared every two weeks throughout the whole study period.
The SKH-1 mice were divided into 5 treatment groups of 30 animals each. […] Within each treatment group, the animals were further divided into 2 subgroups of 15 animals. One subgroup was treated with vehicle or RS-FB solution one hour before the UV light exposure. The other subgroup was exposed to the UV light one hour before the application of vehicle or the allocated RS-FB solution. The solutions were applied topically to the dorsal area of the animals, in a volume of approximately 50-125 μl per application, using cotton tips.
Simulated solar irradiation was provided by an array of 6 UV-A tubes (Sylvania F40BL) symmetrically housed around a single UV-B tube (Philips FL 40SE) in a custom-built unit. As the skin of the animals progressively thickened, the time of exposure to reach 1 minimal erythematous dose (MED) was increased from 7 minutes per day to 10 minutes per day, 5 days a week. The integrated UV-B irradiance (280-320 nm) was 2.4×10^−4 W/cm^2, and the UV-A (320-400 nm) was 1.8×10^−3 W/cm^2 as measured with a model IL 1700 spectro-radiometer (International Light, Newburyport, Mass.). During treatment, the mice in each group were placed in separate open plastic cages in the UV housing unit. […] Treatment in this manner was continued for 28 weeks.
The development of skin cancer was assessed as the visible appearance of papillomas, which subsequently developed, in a subset of cases, to tumours. Weekly papilloma and tumour counts were performed after the appearance of the first papilloma and were continued until the termination of the experiment (week 28). The diameters of papillomas and tumours were measured and their locations noted. Data was recorded representing the number of (a) papillomas, (b) tumours and (c) papillomas plus tumours per animal. While the natural progression is from papilloma to tumour, it will be appreciated by those skilled in the art that, in some cases, the distinction between a papilloma and a tumour could not be made unequivocally. The data was analysed taking this into account. The appearance of the skin lesions was expressed progressively as incidence (percentage of mice bearing at least one papilloma/tumour) and yield (average number of papillomas/tumours per mouse) as well as burden (area of skin affected at the end of study).
Analysis of variance (ANOVA) was used to determine whether RS-FB administration caused a statistically significant change in the appearance and yield of papilloma/tumours in comparison with the control (vehicle group). Comparisons between groups was performed using the Scheffe method. Significance was concluded when P<0.05.

[2] = tested on: non-pigmented human skin cancer cell line MM96L; test: in vitro proliferation (MTS colorimetric assay) and apoptosis of human skin cancer cell line; assay type: cell-based; details: for effect on proliferation rate (FIG. 4): 24 hours exposure, MTS assay; for apoptosis: DNA fragmentation, acridine orange staining, flow cytometry
Text: FIG. 4 is a chart that graphically presents laboratory experiment test data regarding the relative effect of racemic flurbiprofen to its individual enantiomers, R-flurbiprofen flurbiprofen (“R-FB”) and S-flurbipofen (“S-FB”), on the in vitro proliferation of a cancerous human skin cell line. For the underlying experiment, the non-pigmented human skin cancer cell line M[…] was studied in vitro utilizing the MTS colorimetric assay to assess cell proliferation. DNA fragmentation assays, acridine orange staining and flow cytometry were also utilized to assess apoptosis and cell cycle effects. […] An important finding was that there was no difference between the enantiomers of flurbiprofen in their anti-proliferative potency, despite the fact that only the S-isomer was capable of reducing COX activity.

[3] = tested on: cyclooxygenase (COX); details: cited from earlier work
[4] = tested on: human skin cells; test: anti-proliferative effects of other NSAIDs on human skin cells; assay type: cell-based; details: range depends on duration of exposure, read-out: IC50 (concentration required to inhibit cell proliferation by 50%)
Text: FIG. 4 is a chart that graphically presents laboratory experiment test data regarding the relative effect of racemic flurbiprofen to its individual enantiomers, R-flurbiprofen flurbiprofen (“R-FB”) and S-flurbipofen (“S-FB”), on the in vitro proliferation of a cancerous human skin cell line. For the underlying experiment, the non-pigmented human skin cancer cell line MM96L was studied in vitro utilizing the MTS colorimetric assay to assess cell proliferation. DNA fragmentation assays, acridine orange staining and flow cytometry were also utilized to assess apoptosis and cell cycle effects. […] An important finding was that there was no difference between the enantiomers of flurbiprofen in their anti-proliferative potency, despite the fact that only the S-isomer was capable of reducing COX activity.
Further experiments similar to that discussed above with respect to FIG. 4 were conducted to assess the anti-proliferative effects of other NSAIDs on human skin cells. […] These values are similar to the IC50 vales encountered for flurbiprofen.

With CC(C(=O)O)c1ccc(-c2ccccc2)c(F)c1 (racemic) [racemic flurbiprofen, flurbiprofen] the “DP50 (time for 50% of mice within the group to develop at least one papilloma)” value ([1]; 0.5% w/v topical in 70% ethanol, UV 5 days a week) was 17 weeks, the “animals that had developed at least one tumour at the end of the study” value (from here on “animals that had developed”) ([1]; 0.5% w/v topical) was 45% and the “skin appearance at completion of week 28 (FIG. 3c, 3d) vs vehicle animal” value ([1]; 1% and 2% treatment groups, representative animals) was “reduction in tumours and ulcers”. The “DP50 (time for 50% of mice within the group to develop at least one papilloma)” value ([1]; 1% w/v topical in 70% ethanol, UV 5 days a week) was 17 weeks, the “animals that had developed” value ([1]; 1.0% w/v topical) was 25% and the “DP50 (time for 50% of mice within the group to develop at least one papilloma)” value ([1]; 2% w/v topical in 70% ethanol, UV 5 days a week) was 17.5 weeks. The “animals that had developed” value ([1]; 2.0% w/v topical) was 25%, the “adverse effects in the animals” value ([1]; 3% w/v topical, initial treatment (until week 10)) was “adverse effects (such as lethargy, dehydration, and diarrhoea)” and the “DP50 (time for 50% of mice within the group to develop at least one papilloma)” value ([1]; 3-2% w/v topical (3%, then 2% from week 10)) was 18.5 weeks. The “animals that had developed” value ([1]; 3-2% w/v topical) was 10%, the “adverse effects / pathology in the animals” value ([1]; all concentrations up to and including 2% topical, 28 weeks) was “no signs of adverse effects” and the “papilloma/tumour yield (average number per animal) vs control over time (FIG. 1)” value ([1]; all treatment groups 0.5-3-2% w/v, ANOVA/Scheffe) was “statistically significant from week 13”. For the same molecule, the “reduction in the number of animals that developed skin tumours compared with control group” value ([1]; highest concentration (3-2% w/v) vs vehicle control) was “greater than 80%”, the “protection against photo-carcinogenesis, application one hour before vs one hour after UV light” value ([1]; papilloma/tumour incidence compared between the two subgroups) was “superior protection” and the “effect on proliferation rate (FIG. 4)” value [2] was “inhibit the proliferation rate”. The apoptosis [2] was “induce apoptosis”.
With C[C@@H](C(=O)O)c1ccc(-c2ccccc2)c(F)c1 [R-FB, R-flurbiprofen] the “difference between the enantiomers in anti-proliferative potency” value [2] was “no difference”, the “effect on proliferation rate (FIG. 4)” value [2] was “inhibit the proliferation rate” and the apoptosis [2] was “induce apoptosis”. The COX inhibitory activity [3] was “low COX inhibition”.
Molecule CC(C)Cc1ccc([C@@H](C)C(=O)O)cc1 [R-ibuprofen] has an IC50 [4] of 1490 µM.
For C[C@H](C(=O)O)c1ccc(-c2ccccc2)c(F)c1 [S-FB, S-flurbiprofen], the “difference between the enantiomers in anti-proliferative potency” value [2] was “no difference”, the “effect on proliferation rate (FIG. 4)” value [2] was “inhibit the proliferation rate” and the apoptosis [2] was “induce apoptosis”. For the same molecule, the COX inhibitory activity [3] was “can inhibit cyclooxygenase”.
With CC(C)Cc1ccc([C@H](C)C(=O)O)cc1 [S-ibuprofen] the IC50 [4] was 1500 µM.
With CC(=O)Oc1ccccc1C(=O)O [aspirin] the IC50 [4] was 970 to 5530 µM.
With CC1=C(CC(=O)O)c2cc(F)ccc2/C1=C\c1ccc([S+](C)[O-])cc1 (stereo not shown) [sulindac] the IC50 [4] was 1030 to 2160 µM.
